A value given as a limit tells only on which side of the number the result lay.

This passage reports IC50 results from patent US20210323981A1, “FREE AMINO COMPOUNDS FOR THE TREATMENT AND PROPHYLAXIS OF BACTERIAL INFECTION” (Hoffmann-La Roche Inc., priority 2018, published 2021).

Format in all cases: cell-based
The test system of one assay is S. aureus (ATCC29213). Description: 50% growth inhibitory concentration (IC50) determination assay, S. aureus. To be noted: Staphylococcus aureus, growth inhibition, Iso-Sensitest broth, OD 600 nm over 16 h, <0.098 μM = detection limit. The protocol:
(§1) The in vitro antimicrobial activity of the compounds against S. aureus (ATCC29213), K. pneumoniae (ATCC10031), and A. baumannii (ATCC17978), was determined according to the following procedure: The assay used a 10-points Iso-Sensitest broth medium to measure quantitatively the in vitro activity of the compounds against S. aureus ATCC29213, K. pneumoniae ATCC 10031, and A. baumannii ATCC17978. Stock compounds in DMSO were serially two-fold diluted (range from 50 to 0.097 μM final concentration) in 384 wells microtiter plates and inoculated with 49 μL the bacterial suspension in Iso-Sensitest broth medium to have a final cell concentration of ˜5×10^5 CFU/mL in a final volume/well of 50 μL/well. Microtiter plates were incubated at 35±2° C. Bacterial cell growth was determined with the measurement of optical density at k=600 nm each 20 minutes over a time course of 16 h. Growth inhibition was calculated during the logarithmic growth of the bacterial cells with determination of the concentration inhibiting 50% (IC50) of the growth.

Assay [1] concerns K. pneumoniae (ATCC10031). Description: 50% growth inhibitory concentration (IC50) determination assay, K. pneumoniae. To be noted: Klebsiella pneumoniae, growth inhibition, Iso-Sensitest broth, OD 600 nm over 16 h, <0.098 μM = detection limit. The procedure: as §1
The next assay deals with A. baumannii (ATCC17978). Description: 50% growth inhibitory concentration (IC50) determination assay, A. baumannii. To be noted: Acinetobacter baumannii, growth inhibition, Iso-Sensitest broth, OD 600 nm over 16 h, <0.098 = detection limit. The procedure: as §1

For `CNc1cc(F)c(F)c2c1[nH]c1ncc(-c3cnc4c(c3)c(=O)c(C(=O)O)cn4C)c(N3CCC(N)(C(F)(F)F)C3)c12` (centres unmarked) [Example 1.05, 6-(4-(3-Amino-3-(trifluoromethyl)pyrrolidin-1-yl)-5,6-difluoro-8-(methylamino)-9H-pyrido[2,3-b]indol-3-yl)-1-methyl-4-oxo-1,4-dihydro-1,8-naphthyridine-3-carboxylic acid], the IC50 with S. aureus (ATCC29213) is less than 0.098 µM.

With `CNc1cc(F)c(F)c2c1[nH]c1ncc(-c3cnc4c(c3)c(=O)c(C(=O)O)cn4C)c(N3C[C@H]4CCC[C@@]4(N)C3)c12` (stereo in doubt) [Example 1.12, trans-6-(5,6-Difluoro-8-(methylamino)-4-[3a-amino-1,3,4,5,6,6a-hexahydrocyclopenta[c]pyrrol-2-yl]-9H-pyrido[2,3-b]indol-3-yl)-1-methyl-4-oxo-1,8-naphthyridine-3-carboxylic acid], the IC50 with S. aureus (ATCC29213) was 0.448 µM; in assay [1], less than 0.098 µM; in the assay with A. baumannii (ATCC17978) it was 0.889 µM.

For `CNc1cc(F)c(Cl)c2c1[nH]c1ncc(-c3cnc4c(c3)c(=O)c(C(=O)O)cn4C)c(N3CC[C@@]4(C[C@H]4N)C3)c12` [Example 4.01, 6-[4-[(2R,3R)-2-Amino-5-azaspiro[2.4]heptan-5-yl]-5-chloro-6-fluoro-8-(methylamino)-9H-pyrido[2,3-b]indol-3-yl]-1-methyl-4-oxo-1,8-naphthyridine-3-carboxylic acid], the results for the IC50 (in the assay with S. aureus (ATCC29213); in assay [1]; in the assay on A. baumannii (ATCC17978)) were less than 0.098 µM, less than 0.098 µM and 0.0765 µM, respectively.

In the case of `CNc1cc(F)c(F)c2c1[nH]c1ncc(-c3cnc4c(c3)c(=O)c(C(=O)O)cn4C)c(N3CC[C@H]4CN(CCCN)C[C@H]43)c12` (relative stereo) [Example 1.07, cis-6-[5,6-Difluoro-8-(methylamino)-4-[5-(3-aminopropyl)-2,3,3a,4,6,6a-hexahydropyrrolo[2,3-c]pyrrol-1-yl]-9H-pyrido[2,3-b]indol-3-yl]-1-methyl-4-oxo-1,8-naphthyridine-3-carboxylic acid], the values for the IC50 (in the assay on S. aureus (ATCC29213); in assay [1]; in the assay with A. baumannii (ATCC17978)) were 1.67 µM, 0.429 µM and 4.79 µM, respectively.

In the case of `CNc1cc(F)c(C#N)c2c1[nH]c1ncc(-c3cnc4c(c3)c(=O)c(C(=O)O)cn4C)c(N3CC[C@]4(C[C@@H]4N)C3)c12` [Example 5.03, 6-[4-[(2S,3S)-2-amino-5-azaspiro[2.4]heptan-5-yl]-5-cyano-6-fluoro-8-(methylamino)-9H-pyrido[2,3-b]indol-3-yl]-1-methyl-4-oxo-1,8-naphthyridine-3-carboxylic acid], the IC50 with S. aureus (ATCC29213) is less than 0.098 µM; in assay [1], less than 0.098 µM; in the assay on A. baumannii (ATCC17978), 0.497 µM.

For the compound `CNc1cc(F)c(F)c2c1[nH]c1ncc(-c3cnc4c(c3)c(=O)c(C(=O)O)cn4C)c(N3CCC(F)(CN)C3)c12` (centres unmarked) [Example 1.16, 6-[4-[3-(Aminomethyl)-3-fluoro-pyrrolidin-1-yl]-5,6-difluoro-8-(methylamino)-9H-pyrido[2,3-b]indol-3-yl]-1-methyl-4-oxo-1,8-naphthyridine-3-carboxylic acid], the IC50 (with S. aureus (ATCC29213); in assay [1]) was less than 0.098 µM in each case.

In the case of `CNc1cc(F)c(F)c2c1[nH]c1ncc(-c3cnc4c(c3)c(=O)c(C(=O)O)cn4C)c(N3CCC4(C[C@@H]4N)C3)c12` (mixture of isomers) [Example 2.01, Trans-6-[4-(2-amino-5-azaspiro[2.4]heptan-5-yl)-5,6-difluoro-8-(methylamino)-9H-pyrido[2,3-b]indol-3-yl]-1-methyl-4-oxo-1,8-naphthyridine-3-carboxylic acid], the half-maximal inhibitory concentration (IC50) with S. aureus (ATCC29213) was less than 0.098 µM; in assay [1] it was less than 0.098 µM; in the assay with A. baumannii (ATCC17978) it was 0.155 µM.

For the compound `CNc1cc(F)c(Cl)c2c1[nH]c1ncc(-c3cnc4c(c3)c(=O)c(C(=O)O)cn4C)c(N3CC[C@@]4(C[C@@H]4N)C3)c12` [Example 4.03, 6-[4-[(2S,3R)-2-amino-5-azaspiro[2.4]heptan-5-yl]-5-chloro-6-fluoro-8-(methylamino)-9H-pyrido[2,3-b]indol-3-yl]-1-methyl-4-oxo-1,8-naphthyridine-3-carboxylic acid], the IC50 in the assay with S. aureus (ATCC29213) is less than 0.098 µM; in assay [1], less than 0.098 µM; with A. baumannii (ATCC17978) it was 0.0553 µM.

For the compound `CNc1cc(F)c(C#N)c2c1[nH]c1ncc(-c3cnc4c(c3)c(=O)c(C(=O)O)cn4C)c(N3CC[C@]4(C[C@H]4N)C3)c12` [Example 5.02, 6-[4-[(2R,3S)-2-amino-5-azaspiro[2.4]heptan-5-yl]-5-cyano-6-fluoro-8-(methylamino)-9H-pyrido[2,3-b]indol-3-yl]-1-methyl-4-oxo-1,8-naphthyridine-3-carboxylic acid], the figures for the IC50 (with S. aureus (ATCC29213); in assay [1]; in the assay with A. baumannii (ATCC17978)) were less than 0.098 µM, less than 0.098 µM and 0.417 µM, respectively.

As to `CNc1cc(F)c(Cl)c2c1[nH]c1ncc(-c3cnc4c(c3)c(=O)c(C(=O)O)cn4C)c(N3CC[C@]4(C[C@H]4N)C3)c12` [Example 4.04, 6-[4-[(2R,3S)-2-amino-5-azaspiro[2.4]heptan-5-yl]-5-chloro-6-fluoro-8-(methylamino)-9H-pyrido[2,3-b]indol-3-yl]-1-methyl-4-oxo-1,8-naphthyridine-3-carboxylic acid], the figures for the IC50 (in the assay on S. aureus (ATCC29213); in assay [1]; in the assay on A. baumannii (ATCC17978)) were less than 0.098 µM, less than 0.098 µM and 0.0793 µM, respectively.

`CNc1cc(F)c(F)c2c1[nH]c1ncc(-c3cnc4c(c3)c(=O)c(C(=O)O)cn4C)c(N3CCC[C@]4(C[C@@H]4N)C3)c12` [Example 6.02, 6-[4-[(2S,3S)-2-amino-5-azaspiro[2.5]octan-5-yl]-5,6-difluoro-8-(methylamino)-9H-pyrido[2,3-b]indol-3-yl]-1-methyl-4-oxo-1,8-naphthyridine-3-carboxylic acid] had an IC50 in the assay with S. aureus (ATCC29213) of less than 0.098 µM.

Turning to `CNc1cc(F)c(F)c2c1[nH]c1ncc(-c3cnc4c(c3)c(=O)c(C(=O)O)cn4C)c(N3C[C@@H]4[C@@H](N)[C@@H]4C3)c12` [Example 1.08, 6-[5,6-Difluoro-8-(methylamino)-4-[rel-(1S,5R)-6-amino-3-azabicyclo[3.1.0]hexan-3-yl]-9H-pyrido[2,3-b]indol-3-yl]-1-methyl-4-oxo-1,8-naphthyridine-3-carboxylic acid], the IC50 in the assay on S. aureus (ATCC29213) is 0.314 µM; in assay [1], less than 0.098 µM; in the assay with A. baumannii (ATCC17978) it was 0.654 µM.

On to `CNc1cc(F)c(F)c2c1[nH]c1ncc(-c3cnc4c(c3)c(=O)c(C(=O)O)cn4C)c(N3CCC4(C[C@H]4N)C3)c12` (mixture of isomers) [Example 2.02, Cis-6-[4-(2-amino-5-azaspiro[2.4]heptan-5-yl)-5,6-difluoro-8-(methylamino)-9H-pyrido[2,3-b]indol-3-yl]-1-methyl-4-oxo-1,8-naphthyridine-3-carboxylic acid], for which the IC50 in the assay with S. aureus (ATCC29213) is less than 0.098 µM; in assay [1], less than 0.098 µM; in the assay with A. baumannii (ATCC17978) it was 0.261 µM.

In the assay on S. aureus (ATCC29213), `CNc1cc(F)c(F)c2c1[nH]c1ncc(-c3cnc4c(c3)c(=O)c(C(=O)O)cn4C)c(N3CCC[C@@]4(C[C@H]4N)C3)c12` [Example 6.01, 6-[4-[(2R,3R)-2-Amino-5-azaspiro[2.5]octan-5-yl]-5,6-difluoro-8-(methylamino)-9H-pyrido[2,3-b]indol-3-yl]-1-methyl-4-oxo-1,8-naphthyridine-3-carboxylic acid] displayed an IC50 of less than 0.098 µM.

`CNc1cc(F)c(F)c2c1[nH]c1ncc(-c3cnc4c(c3)c(=O)c(C(=O)O)cn4C)c(N3CCC(CN)C3)c12` (centres unmarked) [Example 1.11, 6-[4-[3-(Aminomethyl)pyrrolidin-1-yl]-5,6-difluoro-8-(methylamino)-9H-pyrido[2,3-b]indol-3-yl]-1-methyl-4-oxo-1,8-naphthyridine-3-carboxylic acid]: the figures for the IC50 (in the assay on S. aureus (ATCC29213); in assay [1]; in the assay with A. baumannii (ATCC17978)) were 0.294 µM, less than 0.098 µM and 3.62 µM, respectively.

Turning to `CNc1cc(F)c(C#N)c2c1[nH]c1ncc(-c3cnc4c(c3)c(=O)c(C(=O)O)cn4C)c(N3CC[C@@]4(C[C@@H]4N)C3)c12` [Example 5.01, 6-[4-[(2S,3R)-2-Amino-5-azaspiro[2.4]heptan-5-yl]-5-cyano-6-fluoro-8-(methylamino)-9H-pyrido[2,3-b]indol-3-yl]-1-methyl-4-oxo-1,8-naphthyridine-3-carboxylic acid], the IC50 with S. aureus (ATCC29213) was less than 0.098 µM; in assay [1], less than 0.098 µM; in the assay with A. baumannii (ATCC17978) it was 0.477 µM.

Take `CNc1cc(F)c(F)c2c1[nH]c1ncc(-c3cnc4c(c3)c(=O)c(C(=O)O)cn4C)c(N3CC4CC4(CN)C3)c12` (centres unmarked) [Example 1.06, 6-[4-[1-(Aminomethyl)-3-azabicyclo[3.1.0]hexan-3-yl]-5,6-difluoro-8-(methylamino)-9H-pyrido[2,3-b]indol-3-yl]-1-methyl-4-oxo-1,8-naphthyridine-3-carboxylic acid]: the IC50 is 0.342 µM in the assay on S. aureus (ATCC29213), less than 0.098 µM in assay [1] and 2.48 µM with A. baumannii (ATCC17978).

Regarding `CNc1cc(F)c(F)c2c1[nH]c1ncc(-c3cnc4c(c3)c(=O)c(C(=O)O)cn4C)c(N3CC[C@]4(C[C@@H]4N)C3)c12` [Example 3.04, 6-[4-[(2S,3S)-2-Amino-5-azaspiro[2.4]heptan-5-yl]-5,6-difluoro-8-(methylamino)-9H-pyrido[2,3-b]indol-3-yl]-1-methyl-4-oxo-1,8-naphthyridine-3-carboxylic acid], the IC50 with S. aureus (ATCC29213) is less than 0.098 µM; in assay [1] it was less than 0.098 µM; in the assay on A. baumannii (ATCC17978) it was 0.175 µM.
